Values quoted from earlier work, collected in patent US12622907B2, “Hair loss therapy” (NIRMANA BIO, INC., priority 2021, dated 2026).
Like-named read-outs stand apart in the source and are kept apart here.

How the values were obtained:
[1] = tested on: men with male pattern hair loss; details: oral 1 mg/day
943 women and 461 men = details: for subjects who had to stop treatment because of a side effect: low doses used for hair loss

Compound | recipients with no further hair loss compared with baseline (hair counts) ([1]; men with vertex hair loss, after 2 years) [%] | recipients with improvement in hair growth in global photographs ([1]; men with vertex hair loss, at 1 year) [%] | recipients with improvement in hair growth in global photographs ([1]; men with vertex hair loss, at 2 years) [%] | effect on hair growth and hair loss ([1]; significant proportion of men with male pattern hair loss) | frequency of side effects (943 women and 461 men; low doses which are used to treat hair loss) | subjects who had to stop treatment because of a side effect (943 women and 461 men; men (461)) [%] | subjects who had to stop treatment because of a side effect (943 women and 461 men; women (943)) [%]
CC(C)(C)NC(=O)[C@H]1CC[C@H]2[C@@H]3CC[C@H]4NC(=O)C=C[C@]4(C)[C@H]3CC[C@]12C [finasteride, Finasteride] | 83 | 48 | 66 | promotes hair growth and prevents further hair loss |  |  | 
Nc1cc(N2CCCCC2)nc(N)[n+]1[O-] [minoxidil, Minoxidil] |  |  |  |  | very uncommon | 0.5 | 2.5
